Source: patent US20040006328A1, “Targeting of sebaceous follicles as a treatment of sebaceous gland disorders” (priority 1999, published 2004)

Legend:
[1] = Methylene blue staining of sebaceous glands in ex vivo tissue (topical application, frozen sections, light microscopy); type: in vitro ADME, human
Method: (§1) Freshly excised human skin from a face-lift procedure was provided by a plastic surgeon. The skin originated from the periauricular area and the anterior hairline of a middle-aged fair-skinned person. The samples were stored at 4 ? C. overnight. On the day of experiment, the tissue was shaved with a razor and defatted by rubbing the surface with alcohol swabs for 1 minute. After cutting the skin in smaller pieces, the tissue was placed on saline-soaked gauzes. Methylene blue, a cationic hydrophilic dye was dissolved in distilled water, alcohol, and propylene glycol at a concentration of 5% and applied on the surface of the skin in a thick layer at 31 ? C. […] 5 mm-punch biopsies were performed and the samples were processed frozen sections.
There was minimal non-specific staining of the interstitial dermis.
as §1, with “5% and was mixed in a commercially available aqueous-based lotion (50 mL of dissolved dye in 500 mg of lotion) and applied on” for “5% and applied on”
Methylene blue dye was also administered into the sebaceous glands via Retina Gel® (Ortho Pharmaceuticals) as the carrier vehicle. Typically, a sufficient amount of methylene blue (50 mL of dissolved dye in 500 mg of gel) was combined with hydroxypropyl cellulose, butylated hydroxytoluene and alcohol and applied to the epidermis.

[2] = Localization of applied dyes in in-vitro human sebaceous skin samples by frozen sectioning and light microscopy; type: in vitro ADME
Text: Fresh, in-vitro human sebaceous skin samples were used. Dye solutions and particle suspensions were applied to the samples at different concentration and in various vehicles, followed by localization of the dye by frozen sectioning and light microscopy. […] Apparently, almost any dye or suspension can be delivered to the upper infundibulum by direct solvent flow into the pore. Optimization of the concentration and solvent for MB and ICG can be determined by one skilled in the art. […] Physical means of increasing dye uptake into the infundibulum, including ultrasonication with a tissue dismembranator at low intensity, and a simple pressure-applicator intended to open the surface pores while providing a pressure gradient in favor of dye uptake is possible.

- non-specific staining of the interstitial dermis (FIG. 9) [1]: minimal
- non-specific staining of the interstitial dermis (FIG. 10) [1]: minimal
- increase of rate of uptake by iontophoresis [2]: at least one order of magnitude
- entry of dye into the infundibulum ([2]; fresh in-vitro human sebaceous skin, dye solutions at different concentrations and in various vehicles): rapidly enter the infundibulum
SMILES: CN(C)c1ccc2nc3ccc(=[N+](C)C)cc-3sc2c1 [Methylene blue]
- surface staining after removal of excess dye ([1]; 5% dye solution mixed in aqueous-based lotion (50 mL of dissolved dye in 500 mg of lotion), 31 C, 1 hour): lightly stained epidermis with accentuation of the staining in the follicular pores
- staining in histologic sections (light microscopy, FIG. 10) ([1]; 5% dye solution mixed in aqueous-based lotion, 31 C, 1 hour, frozen sections): dense blue staining of the epidermis and of some sebaceous glands and entire hair follicles
- staining in histologic sections (light microscopy, FIG. 9) ([1]; 5% in distilled water, alcohol and propylene glycol, 31 C, 1 hour, 5 mm punch biopsies, frozen sections): dense blue staining of the epidermis and of some sebaceous glands and entire hair follicles
- surface staining after removal of excess dye ([1]; 5% in distilled water, alcohol and propylene glycol, thick layer at 31 C, 1 hour): lightly stained epidermis with accentuation of the staining in the follicular pores
- penetration into the sebaceous glands (light microscopy) ([1]; Retina Gel as carrier vehicle (50 mL of dissolved dye in 500 mg of gel)): Penetration of the methylene blue dye into the sebaceous glands
- staining of the sebaceous glands ([2]; fresh in-vitro human sebaceous skin, requiring several hours): deeply and selectively stain the sebaceous glands
